# Experimental data as given in patent US10188648B2, “Solid state forms of selexipag” (TEVA PHARMACEUTICALS INTERNATIONAL GMBH, priority 2015, dated 2019).
# Test: solubility in aqueous medium at pH=6.7
# Format: physicochemical
Structure (SMILES),"solubility in aqueous medium in comparison with Form I of U.S. Pat. No. 8,791,122 (comparison with Form I)",solubility in aqueous medium
"CC(C)N(CCCCOCC(=O)NS(C)(=O)=O)c1cnc(-c2ccccc2)c(-c2ccccc2)n1 [Form IV of Selexipag, 2-{4-[(5,6-diphenylpyrazin-2-yl)(isopropyl)amino]butoxy}-N-(methylsulfonyl)acetamide]",enhanced solubility,
"CC(C)N(CCCCOCC(=O)NS(C)(=O)=O)c1cnc(-c2ccccc2)c(-c2ccccc2)n1 [Selexipag Form I, 2-{4-[(5,6-diphenylpyrazin-2-yl)(isopropyl)amino]butoxy}-N-(methylsulfonyl)acetamide]",,practically insoluble
